Assay: mn = molality of the nth substance listed, in mol/kg
Conditions: 100 kPa, Liquid; for speed of sound: Frequency=3 MHz, Sing-around technique in a fixed-path interferometer; for mass density: Vibrating tube method

O=C(CO)[C@@H](O)[C@H](O)[C@H](O)CO [D-fructose] + O
Conditions | mass density, 288.15 K [kg/m3] | mass density, 293.15 K [kg/m3] | mass density, 298.15 K [kg/m3] | mass density, 303.15 K [kg/m3] | mass density, 308.15 K [kg/m3] | speed of sound, 288.15 K [m/s] | speed of sound, 298.15 K [m/s] | speed of sound, 303.15 K [m/s] | speed of sound, 308.15 K [m/s]
m1 = 0.05 | 1003.31 | 1002.37 | 1001 | 999.53 | 998.08 | – | – | 1512.2 | –
m1 = 0.15 | – | 1009.21 | – | – | 1004.78 | – | – | 1518.1 | –
m1 = 0.25 | 1017.01 | 1015.91 | 1014.56 | 1013.07 | – | 1484.3 | 1513 | – | 1534.2
m1 = 0.35 | 1023.52 | 1022.43 | 1021.07 | 1019.48 | 1017.69 | 1491.3 | 1519.1 | 1530.3 | 1539.9

Reference: the NIST ThermoML archive (doi:10.1016/j.tca.2015.03.015)
